Laboratory results published in US20170197938A1, “A QUINOLINE DERIVATIVE FOR THE TREATMENT OF INFLAMMATORY DISEASES AND AIDS” (ABIVAX, priority 2014, published 2017).

What was measured:
[1] = system: miR-124; assay: miR-124 expression in PBMCs treated with screened molecules (RT-qPCR, relative quantification); assay type: cell-based, human; conditions: for Fold-change compared to DMSO treated cells, Mean (miR-124 expression): PBMCs of healthy donors, 6 days treatment, quinoline derivative 5 μM, antiretroviral drugs 10 μM, mean of 4 or 5 donors; for effect on miR-124 expression in PBMCs (in words): antiretrovirals in four donors
Method: For that purpose, Peripheral blood mononuclear cells (PBMCs) of several healthy donors have been isolated by centrifugation on a FICOLL™ gradient according to standard protocols.
Briefly, 60-70 mL of buffy-coat are poured in a flask of 175 cm^2, and the volume is adjusted to 300 mL using PBS in order to obtain a dilution of about 5-fold of the buffy cost. 38 mL of diluted Buffy are then added to Falcon™ tubes of 50 mL comprising 12 mL of FICOLL™ (Histopack-1077) at ambient temperature. The preparation is centrifugated for 30 minutes at 515 rcf at ambient temperature. The lymphocyte ring is recovered from the Falcon™ tube with a transfer pipette (Pastette®) and then washed with PBS using centrifugation for 10 minutes at 290 rcf and at ambient temperature until the supernatant becomes clear.
The cells are then resuspended at 37° C. to a density of 1.5×10^6 cells/mL in RPMI Glutamax medium (Life Technologies Ref 61870-010) supplemented with 10% fetal calf serum (FCS) (Thermo Fisher Ref SV30160.03) and without activation. Cells are incubated for 48 hours at 37° C. under 5% CO2.
Six-well plates are used for the screening. Within each well comprising 3.10^6 cell/4 ml RPMI supplemented with 10% fetal calf serum and 40 U/mL IL-2 (Peprotech Ref 200-02) are added screened molecules. 100% DMSO (4 μL) is added to the well and tested as a negative control.
Each tested condition is set up as described here below and the final corresponding volume is adjusted accordingly in the well: • 1) Quinoline derivative in 100% DMSO—(5 μM and final volume 4 μL) • 2) Antiretroviral drugs: Maraviroc, Efavirenz, Darunavir, AZT (10 μM for all—final volume 4 μL).
The wells are incubated for three days at 37° C. under 5% CO2. Medium is changed (Day 3) according to standard protocols. Briefly, plates are centrifugated at 290 rcf for 5 minutes and 3 mL of supernatant is removed. 3 mL of RPMI supplemented with 10% fetal calf serum and 40 U/mL IL-2 is then added with 3 μL of a stock solution of screened molecule at 5 mM in 100% DMSO or 3 μL of 100% DMSO as a negative control.
Cells are recovered within Falcon™ tubes of 15 mL, centrifugated at 290 rcf for 5 minutes, and then washed in 10 mL PBS and further centrifugated at 290 rcf for 5 minutes. Cells are then resuspended in 1 mL PBS and counted.
6×10^6 cells are recovered and centrifugated at 290 rcf for 5 minutes. The cell pellet is lysed in 300 μL of ML lysis buffer from the Macherey Nagel Nucleospin® miRNA extraction kit (Macherey Nagel Ref 740971), and further stored at −20° C.
5 μL of 2×10^8 copies/μL of spike-in control (Ce_miR-39 from QIAGEN®—reference 219610 of SEQ ID No 6) are added for each sample. The miRNA extraction is achieved using the protocol from Macherey Nagel Nucleospin® miRNA extraction kit using an elution volume for RNAs of 50 μL and miRNAs of 30 μL, and further stored at −20° C.
The reverse transcription step is followed for 12 μL of miRNA using the miScript RT II reverse transcription (RT) kit from QIAGEN® using the miScript HiSpec buffer, and further stored at −20° C.
The quantitative PCR step is achieved using the QIAGEN® miScript SYBR® Green PCR kit and miScript Primer Assays according to the manufacturer's protocol.
The reaction is repeated in triplicates in a 384-well plate according to the manufacturer's protocol on a LightCycler® […] Roche Real-Time PCR system. Cycling conditions are also set up according to the manufacturer's protocol:
From a dilution to the 1/10th in H2O for the miR-124 qPCR (Hs'miR-124a) or to the 1/100th for reference/housekeeping gene qPCR (Hs_miR-26a and Hs_miR-191, using miScript Primer Assays (Hs_miR-124a, Hs_miR-26a and Hs_miR-191 or QIAGEN®—references ms00006622, ms00029239 and ms00003682).
The analysis is achieved using relative quantification models without efficiency correction (2^−ΔΔCp) using the average of crossing points (Cp) values from triplicates of miR-124 and the average of the average of triplicates of miR-26a and miR-191. […]

[2] = system: HIV-1; assay: Inhibition of HIV-1 production in infected PBMCs (p24 ELISA); assay type: cell-based; conditions: Human immunodeficiency virus 1, PBMC, read-out: Activity (IC50)
Method: Within this framework, the peripheral blood mononuclear cells (PBMCs) of healthy donors are isolated by centrifugation on a FICOLL gradient. The cells are then activated two days to a density of 1.5×10^6 cells/ml in RPMI plutamax medium supplemented with 10% fetal calf serum (FCS), 40 U/ml of IL2 and 5 μg/ml PHA, in an incubator at 37° C., 5% CO2.
A standard experiment using 96 plates to test 30 molecules in triplicates including positive and negative controls, is performed as follows:
PHA/IL2 activated PBMCs are washed with RPMI 10% FCS and resuspended at 1.5×10^6 cells/ml in RPMI glutamax 10% FCS, 40 U/ml I12. The cells are seeded in 96 wells (1.5 10^5 cells/well/100 μl). Viral infection is performed with 1 ng of AdaM/well. 100 μl of tested molecules at concentration of 20 μM are added to each well (10 μM final concentration). Virus production is determined by p24 antigen immunosorbent assays after 3 and 6 days of infection (Kit Innogenetics). Typically PBMCs are prepared from several healthy donors (around 11 different donors). […]
The efficacy of compound of formula (1) and of compound no 1 as disclosed in document WO 2012/080953 is measured by the HIV-specific enzyme-linked immunosorbent assay, p24 ELISA.
Drug efficacy is expressed as percent inhibition of the HIV p24 antigen in this rapid and sensitive assay.

Compound	Fold-change compared to DMSO treated cells, Mean (miR-124 expression) [1]	effect on miR-124 expression in PBMCs (in words) [1]	IC50 [2]
CC(C)CN(C[C@@H](O)[C@H](Cc1ccccc1)NC(=O)O[C@H]1CO[C@H]2OCC[C@H]21)S(=O)(=O)c1ccc(N)cc1 [Darunavir]	1.08	none of the known antiretroviral (Maraviroc, Effavirenz, Darunavir or AZT) has any significant effect	–
Cc1cn([C@H]2C[C@H](N=[N+]=[N-])[C@@H](CO)O2)c(=O)[nH]c1=O [AZT]	0.90	none of the known antiretroviral (Maraviroc, Effavirenz, Darunavir or AZT) has any significant effect	–
Maraviroc	0.73	none of the known antiretroviral (Maraviroc, Effavirenz, Darunavir or AZT) has any significant effect	–
O=C1Nc2ccc(Cl)cc2[C@@](C#CC2CC2)(C(F)(F)F)O1 [Effavirenz, Efavirenz]	0.46	none of the known antiretroviral (Maraviroc, Effavirenz, Darunavir or AZT) has any significant effect	–
FC(F)(F)c1ccnc(Nc2ccc3c(OCCN4CCOCC4)ccc(Cl)c3n2)c1	–	–	62.3 µM
FC(F)(F)c1ccnc(Nc2ccc3cc(OCCN4CCOCC4)cc(Cl)c3n2)c1 [Compound of formula (1), 8-chloro-6-(2-morpholinoethoxy)-N-(4-(trifluoromethyl)pyridin-2-yl)quinolin-2-amine]	32.04	up-regulate the expression levels of miR-124	0.43 µM
